Data: US20250339542A1, “CONVERSION OF A BIOLOGICALLY SILENT MIRNA BINDING SMALL MOLECULE TO AN MIRNA DEGRADER” (University of Florida Research Foundation, Incorporated, priority 2020, published 2025)
“And” between values parts separate entries of the source, which are not always exact repeats. Identical values can stand only once. “Also recorded” adds a separate entry of the source.

Experiments:
pre-miR-155 [1] = experiment: Chem-CLIP and competitive Chem-CLIP of pre-miR-155 in MDA-MB-231 cells; assay type: cell-based, human; settings: for enrichment of pre-miR-155 in pulled down fractions (Chem-CLIP): 1×10^−7 M (100 nM)
Experimental: Cellular Chem-CLIP and Competitive-Chem-CLIP of pre-miR-155. MDA-MB-231 cells at 80% confluency in 100 mm dish were treated with Chem-CLIP probe at the indicated concentration overnight. Then cells were washed with DPBS and harvested by scrapping. Total RNA was extracted by using the miRNeasy mini kit (Qiagen) according to the manufacture's protocol. Then, 50 g of total RNA was treated to 150 L of Dynabeads MyOne Streptavidin C1 (Invitrogen) slurry in 500 L of 1×DNA buffer (8.0 mM Na2PO4, 185 mM NaCl, pH=7.0) and shaked for 6 h. The beads then captured on a Magnetic rack and washed with DPBS for 4 times. The bound RNA was then cleaved from beads in 150 μL of 95% formamide with 10 mM EDTA at 95° C. for 30 min. Released RNA was then cleaned up by Zymo Quick-RNA MiniPrep kit per the manufacture's protocol. RT-qPCR was carried out on pre-miR-155 as previously described above by using 10 ng of input cDNA from before and after pulldown RNA samples. Enrichment of pre-miR-155 was calculated as previously reported^15. Competitive Chem-CLIP was completed by pre-treating MDA-MB-231 cells with compound B for 2 h followed by dosing of Chem-CLIP at 100 nM overnight. Sample preparation and data analysis were performed as for Chem-CLIP.

3×3 ILL = experiment: 2DCS with HiT-StARTS fitness ranking of bound RNA motifs; assay type: binding
Experimental: 2DCS: Primary Screening. The microarrays were constructed as previously described.^10 Microarrays were by coating glass plates with 25 mL of molten 1% agarose and allowing it to set for 2 h. After setting, the plates were pinned with compound using a Biomek® NX robotic pintool, pinning 100 nL of each compound. The array was dried in a fume hood overnight and then washed in 1× FB supplemented with 0.1% (v/v) Tween-20 and then Nano pure water two times each followed by air drying on the bench top. Once dried, 200 pmol of radiolabeled 3×3 ILL was added to 0.5 mL of 1× FB and folded by heating to 95° C. for 1 min and then cooling to room temperature slowly on the benchtop. Magnesium chloride was added after cooling. Once cooled the solution was brought to a volume of 2.5 mL with 1× FB. The microarrays were pre-hybridized with 1× HB for 5 min and the excess buffer was removed by touching the edge with a Kimwipe. The arrays were then Hybridized with the RNA for 30 min, spreading the solution evenly over the surface with parafilm. After hybridization, the array was washed four times with 1× HB followed by air drying and imaging by autoradiography. Hits were identified as signals with an intensity greater than 3-fold over background radiation on the array. Positive control compounds Mitoxantrone was present on all arrays.
2DCS: tRNA Counter Screen. To remove non-specific RNA binders hits identified above were subjected to competitive screening with cold yeast tRNA. The assay was carried out as previously described.^10 Briefly, arrays were constructed on Inkjet Superfrost microscope slides (Fisher) by applying 2 mL of molten 1% agarose onto each slide and curing them for 2 h. Once cured, 200 nL of each compound was spotted onto each plate and the plates dried overnight as previously described. After drying, the slides were washed three times for 5 min each with nano pure water and dried under a stream of compressed air. The slides were then pre-hybridized with 1× HB for 5 min, and then incubated with 100 pmol of folded hot RNA and tRNA (1× relative to the total moles of compound spotted) in 0.4 mL of 1× FB for 30 min. The slides were then washed with 1× HB five times, air dried, and imaged to identify library specific binders. […]
In these equations n1 is the observed reads for all selected RNAs in the RNA-seq data; n2 is the total reads observed for the starting library; p1 is the proportion of the reads for a particular sequence to the total reads in the selected library; p2 is the proportion of the reads for a particular sequence to the total reads of the starting library. We can then use Zobs to rank each sequence, and therefore each RNA motif, by its affinity or fitness which is calculated according to equation (5) below described previously:^10 […]

[2] = biological target: pre-miR-155's 5′GAU/3′C_A bulge; experiment: Microscale thermophoresis (MST) binding to pre-miR-155 A bulge; parameters: species or system human
Experimental: (§1) Microscale thermophoresis study of binding. Binding constants were measured by MST using premium capillaries (Nanotemper) using serial dilations of compound from 50 μM to 1 nM in 1:2 dilutions. RNA-Cy5-155-A (20 nM) or Cy5-155-AU (20 nM), Cy5-155-C(20 nM), and Cy5-155-GC (20 nM) were annealed in 2×DNA buffer by heating at 70° C. with cooling to room temperature on the bench. Then the 2× compound and 2× RNA solutions were mixed together in a 1:1 ratio and allowed to equilibrate at room temperature for 10 min. Then, the capillaries were loaded and run on a […] under previously described conditions.^14 MST power was set to 40% and the LED power was set to 3%.

base paired control RNA = experiment: MST binding to base paired control RNA (A bulge mutated to AU pair); settings: microscale thermophoresis
Experimental: as §1

[3] = system: pre-miR-155's C-bulge (5′UCG/3′A_U); experiment: MST binding to pre-miR-155 C bulge; parameters: species or system human; settings: microscale thermophoresis
Experimental: as §1

GC paired control = experiment: MST binding to GC paired control; settings: microscale thermophoresis
Experimental: as §1

pre-miR-155 [4] = experiment: RT-qPCR of pre-miR-155 levels in MDA-MB-231 cells; assay type: cell-based, human; settings: MDA-MB-231 cells
Experimental: (§2) Tissue Culture. MDA-MB-231 cells were obtained from ATCC (HTB-26) and cultured in RPMI medium with […] & 25 mM HEPES (Corning) supplemented with 10% FBS (sigma). MCF-10a cells were obtained from ATCC(CRL-10317) and cultured in DMEM/F12 50/50 with glutamine and 15 mM HEPES(Corning) containing 20% FBS(Sigma), 1×Antibiotic-Antimycotic(Corning), 20 ng/mL of human epidermal growth factor(Pepro Tech Inc.), 100 μg/mL of insulin and […] of hydrocortisone (Pfizer &Bauer). HUVECs were cultured in EGM (Lonza) made using the EGM-2 bullet kit (Lonza) per the manufacturers protocol.
(§3) RT-qPCR analysis for Mature, Primary and Precursor miRNAs and mRNA levels. After compound treatment for the indicated time (MDA-MB-231 48 h and HUVECs 24 h), total RNA was extracted using the Zymo Quick-RNA mini prep kit according to the manufacturers protocol. Reverse Transcription (RT) for microRNAs and pri- and pre-miR-155 were done on 200 ng of RNA using the miScript II RT kit (Qiagen) according to the manufacturer's protocol. The mRNAs were done using QScript (Quanta Bio) on 200 ng of total RNA according to the manufacturer's protocol. RT-qPCR was done as mentioned above. The obtained data was analyzed by using the ΔΔCt method as described previously. For the washout experiment, MDA-MB-231 cells were treated with 3 for 48 h. Then the media was changed with fresh growth medium without compound and the cells incubated for 12, 24 and 36 h with RNA harvested and pre-miR-155 levels analyzed as described above.
(§4) RT-qPCR analysis for Mature, Primary and Precursor miRNAs and mRNA levels part. Relative RNA expression was determined by using ΔΔCt method with 18S rRNA as an internal control. Normalized fold change was calculated with the equation as below: […]

miR-155 [5] = experiment: RT-qPCR of mature miR-155 levels in MDA-MB-231 cells; assay type: cell-based, human; settings: 48 h
Experimental: as §2, §3, §4

pre-miR-155 [6] = experiment: RT-qPCR of pre-miR-155 levels in HUVECs; assay type: cell-based, human
Experimental: as §2, §3

miR-155 [7] = experiment: RT-qPCR of miR-155 levels in HUVECs; assay type: cell-based, human
Experimental: as §2, §3

pre-miR-155 [8] = experiment: In vitro RNase L cleavage assay of pre-miR-155; assay type: biochemical, human
Experimental: pre-miR-155 was then incubated with compound 3 in vitro in an RNase L cleavage assay.
PCR amplification and transcription of DNA templates. PCR amplification of DNA templates of pre-miR-155 and mutants were performed using the pre-miR-155 forward primer containing T7 RNA polymerase promoter and a reverse primer common to both the pre-miR-155 Wild type and Mutant templates. The sequence of Oligonucleotides used in this study can be found in Table 4. PCR amplification was carried out in 350 μL of 1× PCR buffer (10 mM Tris-HCl, pH 9.0, 50 mM KCl, and 0.1% (v/v) Triton X-100), 0.33 mM dNTPs, 4.25 mM MgCl2, 2 μM of each primer(100 μM), and 1.7 μL of Taq DNA polymerase. Thermocycling was done for 35 cycles at 95° C. for 30 s, 55° C. for 30 s, and 72° C. for 60 s. PCR products were confirmed by a 2.5% Agarose Gel stained with ethidium bromide before in vitro transcription. In vitro RNA transcription for the target RNAs were carried out using house made reagents as described previously.^11

In the case of `CC(=O)NCCCC[C@H](NC(=O)CCCc1ccc(N(CCCl)CCCl)cc1)C(=O)NCCNC(=O)CCCCC1SCC2NC(=O)NC21` (stereo partly drawn) [Compound 7], the “enrichment of pre-miR-155 in pulled down fractions (Chem-CLIP)” value (pre-miR-155 [1]) is reported as “no enrichment; also recorded: unable to pull down”.

For `CCCCCCCCCCCc1c(CCCCCCCCCCC)[n+](C)c(CCCO)n1C` [Compound C7], the “Fitness Score of the next motif” value (3×3 ILL) was 46% and the “fitness score of highest affinity interaction, alternating (AU)(UA) pairs” value (3×3 ILL) was 100%.

`Cc1c(CCC(=O)NCCCC[C@H](NC(=O)CCCc2ccc(N(CCCl)CCCl)cc2)C(=O)NCCNC(=O)CCCCC2SCC3NC(=O)NC32)[n+](-c2c(C(C)C)cccc2C(C)C)cn1-c1c(C(C)C)cccc1C(C)C` (stereo partly drawn) [Compound 6] was tested, and the “enrichment of pre-miR-155 in pulled down fractions (Chem-CLIP)” value (pre-miR-155 [1]) was 4 fold and 7 fold.

`Cc1cc(C)c(-n2c[n+](-c3c(C)cc(C)cc3C)c3c2C[C@@]2(C)[C@@H](CC[C@@H]4[C@@H]2CC[C@]2(C)[C@@H]([C@H](C)CCCC(C)C)CC[C@@H]42)C3)c(C)c1` [Compound C11] was tested, and the “Fitness Score of the next motif” value (3×3 ILL) was 56% and the “fitness score of highest affinity interaction, alternating (AU)(UA) pairs” value (3×3 ILL) was 100%.

For `CCCCCCCCCCCc1c(CCCCCCCCCCC)[n+](-c2c(C(C)C)cccc2C(C)C)cn1-c1c(C(C)C)cccc1C(C)C` [Compound 1], the Kd [2] was 490 ± 122 nM, the “binding to base paired control RNA” value (base paired control RNA) was “no binding; also recorded: Neither molecule showed significant binding” and the “binding to C bulge” value [3] was “Neither compound (1 or 2) had any affinity; also recorded: Neither molecule showed significant binding”. For the same compound, the “binding to GC paired control” value (GC paired control) was “Neither compound (1 or 2) had any affinity”, the “concentration of 1 giving complete ablation of cleavage by 3” value (pre-miR-155 [4]; co-treated with 3 at 1×10^−7 M, mature, pre- and pri-miR-155) was 1000 nM and the “effect on miR-155 levels / miR-155 biogenesis” value (miR-155 [5]) was “no effect; also recorded: unable to inhibit”. The IC50 (pre-miR-155 [1]; Homo sapiens, 6 held constant at 1×10^−7 M, read-out: IC50 of reduction of pre-miR-155 enrichment (C-Chem-CLIP)) was 100 nM, the “effect on pre-miR-155 levels” value (pre-miR-155 [6]) was “no effect” and the “competition of cleavage by 3” value (pre-miR-155 [6]; 3 at 1×10^−8 M, 1 at 1×10^−7 and 1×10^−6 M) was “dose dependently reduced cleavage”. For the same compound, the “effect on miR-155 levels” value (miR-155 [7]) was “no effect”.

For `CCCNC(=O)CCc1c(C)n(-c2c(C(C)C)cccc2C(C)C)c[n+]1-c1c(C(C)C)cccc1C(C)C` [Compound 2], the Kd [2] was 552 ± 120 nM, the “binding to base paired control RNA” value (base paired control RNA) was “no affinity; also recorded: ablated binding; also recorded: Neither molecule showed significant binding” and the “binding to C bulge” value [3] was “Neither compound (1 or 2) had any affinity; also recorded: Neither molecule showed significant binding”. The “binding to GC paired control” value (GC paired control) was “Neither compound (1 or 2) had any affinity”, the “effect on pre-miR-155 levels” value (pre-miR-155 [4]) was “no effect” and the “effect on miR-155 levels / miR-155 biogenesis” value (miR-155 [5]) was “no effect”.

In the case of `CCOC(=O)C1=C(Nc2ccccc2)S/C(=C\c2ccc(OCCOCCOCCOCCNC(C)=O)c(O)c2)C1=O` [Compound 4], the “cleavage of pre-miR-155” value (pre-miR-155 [8]) is reported as “no significant cleavage; also recorded: unable to cleave” and the “effect on miR-155 levels / miR-155 biogenesis” value (miR-155 [5]) is reported as “no effect; also recorded: does not affect”.
